Test results from patent US20070098770A1, “Cosmetic path using method thereof, and cosmetic path package” (priority 2003, published 2007).

Tests used:
[1] = cited from earlier work
[2] = Stability of vitamin C dissolved in water; format: physicochemical; details: eight hours after it is dissolved in water

## O=C1O[C@H]([C@@H](O)CO)C(O)=C1O [Vitamin C, L-ascorbic acid]
[1]; absolute alcohol
  volume of an absolute alcohol in which 1 g dissolves: 50 mL
[1]; alcohol
  volume of an alcohol in which 1 g dissolves: 30 mL
[1]; glycerol
  volume of glycerol in which 1 g dissolves: 100 mL
[1]; propylene glycol
  volume of propylene glycol in which 1 g dissolves: 20 mL
[1]; water
  volume of water in which 1 g dissolves: 3 mL
[2]
  portion oxidized into dehydroascorbic acid and deactivated by hydrolysis: at least 10%

## tocopherol [vitamin E]
[1]; alcohol (95% in ethanol)
  solubility in an alcohol: readily soluble
[1]; water
  solubility in water: almost insoluble
